Experiments:
ribosomes [1] = conditions: S. pneumoniae; cited from earlier work
E. coli S30 extract = type: biochemical
[2] = molecular target: rabbit reticulocyte lysate; assay: Translation inhibition in rabbit reticulocyte lysate system (luciferase mRNA); type: biochemical
ribosomes [3] = conditions: macrolide-poisoned ribosomes; cited from earlier work
[4] = tested on: ribosome peptidyl transferase; conditions: cited from earlier work

## CC[C@H]1OC(=O)[C@H](C)C(=O)[C@H](C)[C@@H](O[C@@H]2O[C@H](C)C[C@H](N(C)C)[C@H]2O)[C@](C)(OCC=Cc2cnc3ccccc3c2)C[C@@H](C)C(=O)[C@H](C)[C@H]2NC(=O)O[C@@]21C [ABT-773]
Ribosomes [1]
  ribosome binding relative to erythromycin: binds ribosomes tighter than erythromycin

## COc1ccc(C[C@H]2NC[C@H](O)[C@H]2OC(C)=O)cc1 [anisomycin]
E. coli S30 extract
  IC50: > 100 µM
[2]
  IC50: 0.19 µM

## CO[C@@H]1[C@@H](O[C@@H]2O[C@H](C)[C@@H](O[C@H]3C[C@@](C)(O)[C@@H](OC(=O)CC(C)C)[C@H](C)O3)[C@H](N(C)C)[C@H]2O)[C@@H](CC=O)C[C@@H](C)C(=O)/C=C/[C@@H]2O[C@H]2C[C@@H](C)OC(=O)C[C@H]1OC(C)=O [carbomycin A]
Ribosomes [3]
  length of oligopeptides synthesized in presence of macrolide: strongly inhibits the formation of even the first peptide bond

## O=C(N[C@H](CO)[C@H](O)c1ccc([N+](=O)[O-])cc1)C(Cl)Cl [chloramphenicol]
E. coli S30 extract
  IC50: 12.3 µM
[2]
  IC50: > 100 µM

## CC[C@H]1OC(=O)[C@H](C)[C@@H](O[C@H]2C[C@@](C)(OC)[C@@H](O)[C@H](C)O2)[C@H](C)[C@@H](O[C@@H]2O[C@H](C)C[C@H](N(C)C)[C@H]2O)[C@](C)(O)C[C@@H](C)C(=O)[C@H](C)[C@@H](O)[C@]1(C)O [erythromycin]
Ribosomes [3]
  length of oligopeptides synthesized in presence of macrolide: permit the formation of tetrapeptides

## CC[C@H]1OC(=O)C[C@@H](O)[C@H](C)[C@@H](O[C@@H]2O[C@H](C)[C@@H](O[C@H]3C[C@@](C)(O)[C@@H](O)[C@H](C)O3)[C@H](N(C)C)[C@H]2O)[C@@H](CC=O)C[C@@H](C)C(=O)/C=C/C(C)=C/[C@@H]1CO[C@@H]1O[C@H](C)[C@@H](O)[C@@H](OC)[C@H]1OC [tylosin]
Ribosomes [3]
  length of oligopeptides synthesized in presence of macrolide: allow formation of only dipeptides

## CCdA-phosphate-puromycin [CCdA-p-Puro]
[4]
  binding to the ribosome: binds tightly to the ribosome
  inhibition of peptidyl transferase activity: inhibits its peptidyl transferase activity

## spiramycin
Ribosomes [3]
  length of oligopeptides synthesized in presence of macrolide: allow formation of only dipeptides

Source: patent US8912150B2, “Ribosome structure and protein synthesis inhibitors” (Rib-X Pharmaceuticals, Inc., priority 2001, dated 2014)
